Data reported in paper PMC6539584, “Mosquito Acetylcholinesterase as a Target for Novel Phenyl-Substituted Carbamates” (International Journal of Environmental Research and Public …, 2019).

molecular target: T1, hAChE (Homo sapiens, UniProt P22303); assay: Ellman assay, 96-well, […] nm; assay type: biochemical; settings: acetylthiocholine, pH 7.8, 10 min pre-incubation, 0.1% DMSO; covalent; read-out: hAChE IC50 ^a; cited from earlier work
T1 construct: gene ACHE; commercial recombinant human enzyme (Sigma-Aldrich)
T1 sequence (P22303 32-614): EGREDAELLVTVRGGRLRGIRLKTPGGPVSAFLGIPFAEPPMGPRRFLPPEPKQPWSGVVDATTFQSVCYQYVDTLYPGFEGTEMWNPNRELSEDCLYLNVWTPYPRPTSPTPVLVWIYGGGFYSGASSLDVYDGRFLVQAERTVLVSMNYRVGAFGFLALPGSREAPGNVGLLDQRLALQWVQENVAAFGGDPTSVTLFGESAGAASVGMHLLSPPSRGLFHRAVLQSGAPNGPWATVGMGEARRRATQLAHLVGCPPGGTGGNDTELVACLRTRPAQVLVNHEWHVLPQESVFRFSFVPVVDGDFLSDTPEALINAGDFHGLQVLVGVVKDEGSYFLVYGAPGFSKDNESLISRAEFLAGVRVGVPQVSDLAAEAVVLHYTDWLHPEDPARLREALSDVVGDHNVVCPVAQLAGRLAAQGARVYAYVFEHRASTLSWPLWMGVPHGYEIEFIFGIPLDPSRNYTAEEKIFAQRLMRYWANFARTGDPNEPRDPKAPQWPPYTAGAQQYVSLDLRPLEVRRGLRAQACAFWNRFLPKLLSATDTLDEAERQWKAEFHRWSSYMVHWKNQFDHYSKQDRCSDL

Row | Compound | IC50
1 | CC[Si](C)(C)c1cccc(OC(=O)NC)c1 [4a] | 630 nM
2 | CNC(=O)Oc1cccc([Si](C)(C)C)c1 [3a] | 490 nM

same assay, conditions: read-out: hAChE IC50 ^a; acetylthiocholine, pH 7.8, 10 min pre-incubation, 0.1% DMSO; covalent; cited from earlier work

Row | Compound | IC50
3 | CCC(CC)CSc1ccccc1OC(=O)NC [5a] | 5000 nM

same assay, conditions: read-out: hAChE ^aIC50; acetylthiocholine, pH 7.8, 10 min pre-incubation, 0.1% DMSO; covalent; cited from earlier work

Row | Compound | IC50
4 | CNC(=O)Oc1cccc(C(C)(C)C)c1 [1a, 3-tert-butylphenyl methylcarbamate] | 320 nM

molecular target: not listed separately; assay: Ellman assay, 96-well, […] nm; assay type: biochemical, Homo sapiens; settings: read-out: AgAChE, IC50, ^a nM

Row | Compound | IC50
5 | CNC(=O)Oc1cccc(C(F)(F)F)c1 [2a, 3-(trifluoromethyl)phenyl methylcarbamate] | > 100000 nM

molecular target: T1, hAChE; assay: Ellman assay, 96-well, […] nm; assay type: biochemical; settings: not given

Row | Compound | IC50
6 | CC[Si](C)(C)c1cc(F)cc(OC(=O)NC)c1 [4g, 3-(ethyldimethylsilyl)-5-fluorophenyl methylcarbamate] | 1900 nM
7 | CNC(=O)Oc1cc(C(C)(C)C)ccc1SC(C)C [1o, 5-(tert-butyl)-2-(isopropylthio)phenyl methylcarbamate] | 2200 nM
8 | CNC(=O)Oc1cc(C(C)(C)C)ccc1SC [1m, 5-(tert-butyl)-2-(methylthio)phenyl methylcarbamate] | 640 nM
9 | C=CCNC(=O)c1ccc(OC(=O)NC)cc1C(C)(C)C [1h, 4-(allylcarbamoyl)-3-(tert-butyl)phenyl methylcarbamate] | 2800 nM
10 | CNC(=O)Oc1cc(C(C)(C)C)ccc1I [1e, 5-(tert-butyl)-2-iodophenyl methylcarbamate] | 640 nM
11 | CNC(=O)Oc1ccc(C(=O)NCC(C)C)c(C(C)(C)C)c1 [1j, 3-(tert-butyl)-4-(isobutylcarbamoyl)phenyl methylcarbamate] | > 100000 nM
12 | CC[Si](C)(C)c1cc(OC(=O)NC)ccc1C [4c, 3-(ethyldimethylsilyl)-4-methylphenyl methylcarbamate] | 1400 nM
13 | CNC(=O)Oc1ccc(Br)c(C(C)(C)C)c1 [1b, 4-bromo-3-(tert-butyl)phenyl methylcarbamate] | 1200 nM
14 | CNC(=O)Oc1cc(C(C)(C)C)ccc1Br [1d, 2-bromo-5-(tert-butyl)phenyl methylcarbamate] | 48 nM
15 | CNC(=O)Oc1cc(C(C)(C)C)ccc1SCC(C)C [1n, 5-(tert-butyl)-2-(isobutylthio)phenyl methylcarbamate] | 4700 nM
16 | CNC(=O)Oc1cc(F)cc([Si](C)(C)C)c1 [3g, 3-fluoro-5-(trimethylsilyl)phenyl methylcarbamate] | 4200 nM
17 | CCCSc1ccccc1OC(=O)NC [6a, 2-(propylthio)phenyl methylcarbamate] | 2300 nM
18 | CCCCCCc1ccc(C(C)(C)C)cc1OC(=O)NC [1f, 5-(tert-butyl)-2-hexylphenyl methylcarbamate] | 6300 nM
19 | CCN(CC)C(=O)c1ccc(OC(=O)NC)cc1C(C)(C)C [1k, 3-(tert-butyl)-4-(diethylcarbamoyl)phenyl methylcarbamate] | 2300 nM
20 | CNC(=O)Oc1ccc(C)c([Si](C)(C)C)c1 [3c, 4-methyl-3-(trimethylsilyl)phenyl methylcarbamate] | 2400 nM
21 | CNC(=O)Oc1ccc(C(=O)NC)c(C(C)(C)C)c1 [1i, 3-(tert-butyl)-4-(methylcarbamoyl)phenyl methylcarbamate] | > 100000 nM

same assay, conditions: acetylthiocholine, pH 7.8, 10 min pre-incubation, 0.1% DMSO; covalent; read-out: hAChE ^aIC50

Row | Compound | IC50
22 | 3-(tert-butyl)-4-(ethyl(methyl)carbamoyl)phenyl methylcarbamate [1l] | 5500 nM
